Assay results as given in patent US8877748B2, “Heterocyclic fused anthraquinone derivatives, manufacturing method and pharmaceutical composition using thereof” (National Defense Medical Center, priority 2012, dated 2014).

Key:
Type in all cases: cell-based, human
SF-295 = assay: NCI one-dose screening, CNS cancer SF-295; settings: 10 μM
A549/ATCC = assay: NCI one-dose screening, non-small cell lung cancer A549/ATCC; settings: 10 μM
KM12 = assay: NCI one-dose screening, colon cancer KM12; settings: 10 μM
SN12C = assay: NCI one-dose screening, renal cancer SN12C; settings: 10 μM
[1] = test system: PC-3 prostate cancer cell line; assay: SRB assay cell viability, PC-3 prostate cancer cell line; settings: Homo sapiens, PC-3 prostate cancer cell line, Table II prints no unit, μM printed, read-out: SRB assay: 50% inhibition of cancer cell proliferation of sample concentration (IC50) of PC-3 prostate cancer cell line
MALME-3M = assay: NCI one-dose screening, melanoma MALME-3M; settings: 10 μM
HT29 = assay: NCI one-dose screening, colon cancer HT29; settings: 10 μM
OVCAR-8 = assay: NCI one-dose screening, ovarian cancer OVCAR-8; settings: 10 μM
SF-539 = assay: NCI one-dose screening, CNS cancer SF-539; settings: 10 μM
IGROV1 = assay: NCI one-dose screening, ovarian cancer IGROV1; settings: 10 μM
NCI-H460 = assay: NCI one-dose screening, non-small cell lung cancer NCI-H460; settings: 10 μM
SK-MEL-5 = assay: NCI one-dose screening, melanoma SK-MEL-5; settings: 10 μM
SR = assay: NCI one-dose screening, leukemia SR; settings: 10 μM
MDA, -MB-435 = assay: NCI one-dose screening, breast cancer MDA, -MB-435; settings: 10 μM; listed under Melanoma
SNB-19 = assay: NCI one-dose screening, CNS cancer SNB-19; settings: 10 μM
U251 = assay: NCI one-dose screening, CNS cancer U251; settings: 10 μM
EKVX = assay: NCI one-dose screening, non-small cell lung cancer EKVX; settings: 10 μM
HL-60, TB = assay: NCI one-dose screening, leukemia HL-60, TB; settings: 10 μM
COLO 205 = assay: NCI one-dose screening, colon cancer COLO 205; settings: 10 μM
PRMI-8226 cell line = assay: NCI one-dose screening, leukemia PRMI-8226; settings: 10 μM
OVCAR-3 = assay: NCI one-dose screening, ovarian cancer OVCAR-3; settings: 10 μM
SNB-75 = assay: NCI one-dose screening, CNS cancer SNB-75; settings: 10 μM
HOP-62 = assay: NCI one-dose screening, non-small cell lung cancer HOP-62; settings: 10 μM
786-O = assay: NCI one-dose screening, renal cancer 786-O; settings: 10 μM
SF-268 = assay: NCI one-dose screening, CNS cancer SF-268; settings: 10 μM
CCRF-CEM = assay: NCI screening platform one-dose single concentration screening, leukemia CCRF-CEM; settings: 10 μM
SK-MEL-2 = assay: NCI one-dose screening, melanoma SK-MEL-2; settings: 10 μM
UACC-62 = assay: NCI one-dose screening, melanoma UACC-62; settings: 10 μM
NCl/ADR-RES = assay: NCI one-dose screening, breast cancer NCl/ADR-RES; settings: 10 μM; listed under Ovarian cancer
NCI-H226 = assay: NCI one-dose screening, non-small cell lung cancer NCI-H226; settings: 10 μM
NCI-H322M = assay: NCI one-dose screening, non-small cell lung cancer NCI-H322M; settings: 10 μM; Non-small cell lung cancer
K562cell line = assay: NCI one-dose screening, leukemia K562; settings: 10 μM
UACC-257 = assay: NCI one-dose screening, melanoma UACC-257; settings: 10 μM
RXF, 393 = assay: NCI one-dose screening, renal cancer RXF, 393; settings: 10 μM
M14 = assay: NCI one-dose screening, melanoma M14; settings: 10 μM
HCT-15 = assay: NCI one-dose screening, colon cancer HCT-15; settings: 10 μM
ACHN = assay: NCI one-dose screening, renal cancer ACHN; settings: 10 μM
HCC-2998 = assay: NCI one-dose screening, colon cancer HCC-2998; settings: 10 μM
TK-10 = assay: NCI one-dose screening, renal cancer TK-10; settings: 10 μM
LOX IMVI = assay: NCI one-dose screening, melanoma LOX IMVI; settings: 10 μM
NCI-H522 = assay: NCI one-dose screening, non-small cell lung cancer NCI-H522; settings: 10 μM
OVCAR-4 = assay: NCI one-dose screening, ovarian cancer OVCAR-4; settings: 10 μM
OVCAR-5 = assay: NCI one-dose screening, ovarian cancer OVCAR-5; settings: 10 μM
NCI-H23 = assay: NCI one-dose screening, non-small cell lung cancer NCI-H23; settings: 10 μM
MOLT-4 = assay: NCI one-dose screening, leukemia MOLT-4; settings: 10 μM
CAKI-1 = assay: NCI one-dose screening, renal cancer CAKI-1; settings: 10 μM
SK-MEL-28 = assay: NCI one-dose screening, melanoma SK-MEL-28; settings: 10 μM
HCT-116 = assay: NCI one-dose screening, colon cancer HCT-116; settings: 10 μM

SMILES: CCSc1cc2c(c3nsnc13)C(=O)c1ccccc1C2=O [C16, 4-(ethylthio)anthra[2,1-c][1,2,5] thiadiazol-6,11-dione]
- Growth Percent SF-295 (SF-295): 79.94%
- Growth Percent A549/ATCC (A549/ATCC): 20.39%
- Growth Percent KM12 (KM12): 69.33%
- Growth Percent SN12C (SN12C): −61.79%
- IC50 [1]: 5.39 µM
- Growth Percent MALME-3M (MALME-3M): −58.68%
- Growth Percent HT29 (HT29): 77.39%
- Growth Percent OVCAR-8 (OVCAR-8): −79.84%
- Growth Percent SF-539 (SF-539): −22.78%
- Growth Percent IGROV1 (IGROV1): −54.45%
- Growth Percent NCI-H460 (NCI-H460): 27.92%
- Growth Percent SK-MEL-5 (SK-MEL-5): −94.86%
- Growth Percent SR (SR): −54.27%
- Growth Percent MDA-MB-435 (MDA, -MB-435): −61.08%
- Growth Percent SNB-19 (SNB-19): 83.19%
- Growth Percent U251 (U251): −73.58%
- Growth Percent EKVX (EKVX): 56.13%
- Growth Percent HL-60(TB) (HL-60, TB): −45.01%
- Growth Percent COLO 205 (COLO 205): 97.05%
- Growth Percent RPMI-8226 (PRMI-8226 cell line): −35.20%
- Growth Percent OVCAR-3 (OVCAR-3): −76.39%
- Growth Percent SNB-75 (SNB-75): 33.65%
- Growth Percent HOP-62 (HOP-62): 2.44%
- Growth Percent 786-0 (786-O): 80.27%
- Growth Percent SF-268 (SF-268): −54.89%
- Growth Percent CCRF-CEM (CCRF-CEM): −35.53%
- Growth Percent SK-MEL-2 (SK-MEL-2): −69.35%
- Growth Percent UACC-62 (UACC-62): −38.24%
- Growth Percent NCI/ADR-RES (NCl/ADR-RES): −37.28%
- Growth Percent NCI-H226 (NCI-H226): 53.41%
- Growth Percent NCI-H322M (NCI-H322M): 89.71%
- Growth Percent K562 (K562cell line): −44.64%
- Growth Percent UACC-257 (UACC-257): −86.35%
- Growth Percent RXF 393 (RXF, 393): −62.42%
- Growth Percent M14 (M14): 47.15%
- Growth Percent HCT-15 (HCT-15): 2.65%
- Growth Percent ACHN (ACHN): −44.97%
- Growth Percent HCC-2998 (HCC-2998): 90.47%
- Growth Percent TK-10 (TK-10): 103.17%
- Growth Percent LOX IMVI (LOX IMVI): −91.42%
- Growth Percent NCI-H522 (NCI-H522): −88.01%
- Growth Percent OVCAR-4 (OVCAR-4): −100.00%
- Growth Percent OVCAR-5 (OVCAR-5): 115.03%
- Growth Percent NCI-H23 (NCI-H23): −25.43%
- Growth Percent MOLT-4 (MOLT-4): −50.44%
- Growth Percent CAKI-1 (CAKI-1): −1.76%
- Growth Percent SK-MEL-28 (SK-MEL-28): −41.99%
- Growth Percent HCT-116 (HCT-116): −82.82%

SMILES: Cc1cccc(C)c1Sc1cc2c(c3nsnc13)C(=O)c1ccccc1C2=O [C55, 4-(2,6-dimethylphenylthio)anthra[2,1-c] [1,2,5]thiadiazol-6,11-dione]
- Growth Percent SF-295 (SF-295): 91.11%
- Growth Percent A549/ATCC (A549/ATCC): 90.16%
- Growth Percent KM12 (KM12): 95.96%
- Growth Percent SN12C (SN12C): 67.67%
- IC50 [1]: 6.74 µM
- Growth Percent MALME-3M (MALME-3M): 73.72%
- Growth Percent HT29 (HT29): 97.73%
- Growth Percent OVCAR-8 (OVCAR-8): 58.98%
- Growth Percent SF-539 (SF-539): 84.51%
- Growth Percent IGROV1 (IGROV1): 66.38%
- Growth Percent NCI-H460 (NCI-H460): 87.37%
- Growth Percent SK-MEL-5 (SK-MEL-5): 70.23%
- Growth Percent SR (SR): 35.52%
- Growth Percent MDA-MB-435 (MDA, -MB-435): 96.77%
- Growth Percent SNB-19 (SNB-19): 94.75%
- Growth Percent U251 (U251): 53.94%
- Growth Percent EKVX (EKVX): 82.44%
- Growth Percent HL-60(TB) (HL-60, TB): 47.83%
- Growth Percent COLO 205 (COLO 205): 98.76%
- Growth Percent RPMI-8226 (PRMI-8226 cell line): 55.63%
- Growth Percent OVCAR-3 (OVCAR-3): 1.00%
- Growth Percent SNB-75 (SNB-75): 69.38%
- Growth Percent HOP-62 (HOP-62): 90.01%
- Growth Percent 786-0 (786-O): 115.19%
- Growth Percent SF-268 (SF-268): 79.48%
- Growth Percent CCRF-CEM (CCRF-CEM): 34.84%
- Growth Percent SK-MEL-2 (SK-MEL-2): 67.54%
- Growth Percent UACC-62 (UACC-62): 91.72%
- Growth Percent NCI/ADR-RES (NCl/ADR-RES): 59.68%
- Growth Percent NCI-H226 (NCI-H226): 78.31%
- Growth Percent NCI-H322M (NCI-H322M): 83.83%
- Growth Percent K562 (K562cell line): 43.14%
- Growth Percent UACC-257 (UACC-257): 86.57%
- Growth Percent RXF 393 (RXF, 393): 76.16%
- Growth Percent M14 (M14): 121.55%
- Growth Percent HCT-15 (HCT-15): 47.54%
- Growth Percent ACHN (ACHN): 83.18%
- Growth Percent HCC-2998 (HCC-2998): 100.96%
- Growth Percent TK-10 (TK-10): 119.41%
- Growth Percent LOX IMVI (LOX IMVI): 44.61%
- Growth Percent NCI-H522 (NCI-H522): 61.39%
- Growth Percent OVCAR-4 (OVCAR-4): 4.00%
- Growth Percent OVCAR-5 (OVCAR-5): 113.96%
- Growth Percent NCI-H23 (NCI-H23): 67.37%
- Growth Percent MOLT-4 (MOLT-4): 32.64%
- Growth Percent CAKI-1 (CAKI-1): 61.03%
- Growth Percent SK-MEL-28 (SK-MEL-28): 89.33%
- Growth Percent HCT-116 (HCT-116): 64.99%
